The target in assay [1] is T1, PD-L1 (Homo sapiens (Human), UniProt Q9NZQ7). The assay is described as follows: PD-L1 surface levels on HEK293T STING reporter cells, high PD-L1. The assay is classed as cell-based. As to the method:
To determine PD-L1 expression on HEK cells after treatment of PD-L1-small molecule conjugated STING agonists, cells were harvested at 20 hours post-treatment. Single cell suspensions were then stained with phycoerythrin-conjugated anti-PD-L1 antibody (BD Bioscience), and the PD-L1 expression were then analyzed by flow cytometry. Mean fluorescence intensity was used as the relative level of surface PD-L1 expression on cells (FIG. 1 and Table 6).
Also, cells were stained with PE-conjugated anti-human PD-L1 antibody to determine surface PD-L1 expression. Cell acquisition was performed on BD LSRFortessa X-20 (BD Biosciences). Data was analyzed using FlowJo software. IC50 values were calculated using Prism Software.

Assay [2] has as its system IRF3 activation in PD-L1 low HEK293T STING reporter cell line. Put plainly: IRF3 activation in HEK293T STING reporter cells, low PD-L1. The format is cell-based, human. As to conditions: 20 hours, read-out: IRF Activation EC50 (nM), Low PD-L1. As to the method: (§1) HEK293T STING reporter cell line was purchased from Invivogen and expressed low level of PD-L1. This cell line was then engineered at Incyte Research Institute to overexpress human PD-L1. Both PD-L1 high and PD-L1 low HEK293T cell lines were plated at 100,000 cells/100 μL/well in 10% fetal calf serum-containing DMEM culture medium in a 96-well flat bottom plate. Serial dilutions of PD-L1 small molecule-conjugated STING agonists were then added to the corresponding wells, and incubated for 20 hours at 37° C. In a competition study setting, 1 μM of a PD-L1 small molecule was added in the corresponding wells to compete with the binding of PD-L1 small molecule-conjugated STING agonists. At the end of the incubation, the culture supernatants were carefully removed from each well, and the amount of IRF3 activation was determined by adding Quanti-Blue substrate in accordance with the manufacturer's protocol.
(§2) 293T-Dual hSTING-R232 (ISG/KI-IFNb) cells that were generated from 293T-Dual Null (ISG/KI-IFNb) cells by stable transfection of the R232 isoform of human STING were purchased from Invivogen (Invivogen #293d-r232).
(§3) This cell line expresses an ISRE-inducible SEAP (secreted embryonic alkaline phosphatase) reporter construct, which monitors the activation of interferon regulatory factor (IRF) and its binding to ISRE (IFN-stimulated response elements). These reporter cells express low level of PD-L1. Human PD-L1 was then overexpressed in these cells through stable transfection.
(§4) These 293T-Dual hSTING-R232 reporter cells as well as293T-Dual hSTING-R232 reporter cells overexpressing huPD-L1 were treated with various concentrations of STING compounds for 20 hours. After 20 hours, interferon regulatory factor (IRF) activity was assessed by measuring SEAP levels in the supernatant using QUNTI-Blue. EC50 values were generated by curve fit in Prism software.

Assay [3] has as its system IRF3 activation in PD-L1 high HEK293T STING reporter cell line. Put plainly: IRF3 activation in HEK293T STING reporter cells, high PD-L1. The format is cell-based, human. The settings on record: for EC50: 20 hours; for Potency shift: with compound P27 (1 μM) versus no competition. As for the experimental part:
as §1, §2, §3, §4

Assay [4] deals with T1, PD-L1. Put plainly: Indirect whole blood PD-L1 internalization assay. The settings on record: interferon γ, 18 hours, CD14+ gated. The assay is classed as cell-based. As to the method: To determine PD-L1 internalization in human whole blood, normal human blood (Biological Specialty Corp, Colmar. Pa.) was incubated in the presence or absence of a concentration range of test compounds and 1 ng/ml human interferon γ (R&D Systems Inc. Minn. Minn.) in a 96 well round bottom plate (Corning, Corning, N.Y.) for 18 hours at 37° C. Blood was then transferred into 96 well “2 ml Assay Block” (Corning, Corning N.Y.) and stained with PD-L1 (MIH1, eBioscience; or BD Biosciences San Jose, Calif.), CD14 (Life Technologies, Carlsbad, Calif.) for 30 minutes in the dark at room temperature. Whole Blood/red cells were lysed/fixed (lysis buffer BD Biosciences) for 5 minutes at 37° C. in dark and then centrifuged at 1600 RPM for 5 minutes and cells were transferred into 96 well round bottom plates (Corning). Cells were gated on CD14+ (BD Biosciences) and PD-L1 expression determined by mean fluorescence intensity (MFI) (BD LSRFortessa™ X-20). IC50 determination was performed by fitting the curve of compound percent inhibition versus the log of the compound concentration using the GraphPad Prism 7.0 software.

A further assay concerns IRF3. Put plainly: IRF3 activation assay in THP-1 Dual cells. The format is cell-based. The settings on record: Homo sapiens, read-out: THP1 IRF3 EC50. An outline of the steps:
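THP-1 Dual cells (100,000/well) were treated with serially diluted compound for 24 h at 37° C, 5% CO2. IRF3 reporter activity in supernatant was read with QUANTI-Blue as absorbance at 620-655 nm after 2 h, with untreated cells as negative control. EC50 came from fitting percent control activity against log concentration.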

[5] abbreviates: high PD-L1 cells, read-out: IRF Activation EC50 (nM), High PD-L1.
Where [6] appears, read: no competition, read-out: IRF Activation EC50 (nM), No competition.
Setting [7] is: read-out: IRF Activation EC50 (nM), With compound P27 (1 μM), competition with compound P27 1 μM.

The results in this text go back to US11596692B1 (Incyte Corporation, priority 2018, dated 2023).

Where two headings read alike, the source gives them in different places.

Broadly, the IC50 is the concentration at which inhibition is half-maximal. A lower IC50 goes with greater potency. Usually EC50 stands for the concentration that produces a half-maximal response.

T1 sequence (Q9NZQ7 19-290): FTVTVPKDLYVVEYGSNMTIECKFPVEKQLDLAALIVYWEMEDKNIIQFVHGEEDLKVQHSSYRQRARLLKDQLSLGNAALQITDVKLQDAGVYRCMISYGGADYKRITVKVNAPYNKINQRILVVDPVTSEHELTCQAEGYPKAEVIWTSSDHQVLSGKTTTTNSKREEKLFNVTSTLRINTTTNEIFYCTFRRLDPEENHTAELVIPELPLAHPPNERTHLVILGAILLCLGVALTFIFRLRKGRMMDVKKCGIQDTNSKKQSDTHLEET

In the case of `CCn1nc(C)cc1C(=O)Nc1nc2cc(C(N)=O)cc(OC)c2n1C/C=C/Cn1c(NC(=O)c2cc(C)nn2CC)nc2cc(C(N)=O)cc(OCCCNC(=O)[C@H](CCC(=O)O)NC(=O)[C@H](CCC(=O)O)NC(=O)[C@H](CCCNC(=N)N)NC(=O)[C@H](CCC(=O)O)NC(=O)CCCN3CCc4c(nc(C(=O)Nc5cccc(-c6cccc(NC(=O)c7nc8c(n7C)CCN(CCCC(=O)O)C8)c6Cl)c5Cl)n4C)C3)c21` [Example 19], the IC50 against PD-L1 [1] is below 50 nM. Moreover, the concentration for a half-maximal effect (EC50) is 50 to 200 nM in assay [2] and below 50 nM in assay [3] (setting [5]).

Consider `CCn1nc(C)cc1C(=O)Nc1nc2cc(C(N)=O)cc(OC)c2n1C/C=C/Cn1c(NC(=O)c2cc(C)nn2CC)nc2cc(C(N)=O)cc(OCCCNC(=O)CCNC(=O)OCc3ccc(NC(=O)[C@H](CCCNC(N)=O)NC(=O)[C@@H](CC(=O)Cn4cc(CCNC(=O)[C@H](CC(=O)O)NC(=O)[C@H](CC(=O)O)NC(=O)[C@H](CCCNC(=N)N)NC(=O)[C@H](CC(=O)O)NC(=O)CCCN5CCc6c(nc(C(=O)Nc7cccc(-c8cccc(NC(=O)c9nc%10c(n9C)CCN(CCCC(=O)O)C%10)c8Cl)c7Cl)n6C)C5)nn4)C(C)C)cc3)c21` [Example 4], for which the EC50 is 200 to 1000 nM in assay [2], below 50 nM in assay [3] (setting [5]), below 50 nM in assay [3] (setting [6]) and 200 to 1000 nM in assay [3] (setting [7]). For the same compound, the Potency shift in assay [3] is listed as above 20.

`CCn1nc(C)cc1C(=O)Nc1nc2cc(C(N)=O)cc(OC)c2n1C/C=C/Cn1c(NC(=O)c2cc(C)nn2CC)nc2cc(C(N)=O)cc(OCCCNC(=O)[C@@H](NC(=O)[C@H](CC(=O)O)NC(=O)[C@H](CC(=O)O)NC(=O)[C@H](CCCNC(=N)N)NC(=O)[C@H](CC(=O)O)NC(=O)CCCN3CCc4c(nc(C(=O)Nc5cccc(-c6cccc(NC(=O)c7nc8c(n7C)CCN(CCCC(=O)O)C8)c6Cl)c5Cl)n4C)C3)C(C)(C)C)c21` [Example 20] came in with an IC50 on PD-L1 [1] below 50 nM. Moreover, the EC50 was 50 to 200 nM in assay [2] and below 50 nM in assay [3] (setting [5]).

Regarding `CCn1nc(C)cc1C(=O)Nc1nc2cc(C(N)=O)cc(OC)c2n1C/C=C/Cn1c(NC(=O)c2cc(C)nn2CC)nc2cc(C(N)=O)cc(OCCCNC(=O)[C@H](CC(=O)O)NC(=O)[C@H](CC(=O)O)NC(=O)[C@H](CC(=O)O)NC(=O)[C@H](CCCNC(=N)N)NC(=O)CCCN3CCc4c(nc(C(=O)Nc5cccc(-c6cccc(NC(=O)c7nc8c(n7C)CCN(CCCC(=O)O)C8)c6Cl)c5Cl)n4C)C3)c21` [Example 17], the IC50 at PD-L1 [1] is below 50 nM. Moreover, the EC50 in assay [2] was 50 to 200 nM; in assay [3] (setting [5]), below 50 nM.

`CCn1nc(C)cc1C(=O)Nc1nc2cc(C(N)=O)cc(OC)c2n1C/C=C/Cn1c(NC(=O)c2cc(C)nn2CC)nc2cc(C(N)=O)cc(OCCCNC(=O)CCNC(=O)OCc3ccc(NC(=O)[C@H](CCCNC(N)=O)NC(=O)[C@@H](NC(=O)CCCN4CCc5c(nc(C(=O)Nc6cccc(-c7cccc(NC(=O)c8nc9c(n8C)CCN(CCCC(=O)N[C@@H](CC(=O)O)C(=O)O)C9)c7Cl)c6Cl)n5C)C4)C(C)C)cc3)c21` [Example 3]: the EC50 in assay [2] was 200 to 1000 nM; in assay [3] (setting [5]) it was below 50 nM; in assay [3] (setting [6]), below 50 nM; in assay [3] (setting [7]), 200 to 1000 nM. Besides, the Potency shift in assay [3] was above 20.

For the compound `CCn1nc(C)cc1C(=O)Nc1nc2cc(C(N)=O)cc(OC)c2n1C/C=C/Cn1c(NC(=O)c2cc(C)nn2CC)nc2cc(C(N)=O)cc(OCCCNC(=O)[C@H](CC(=O)O)NC(=O)[C@H](CC(=O)O)NC(=O)[C@H](CC(=O)O)NC(=O)[C@H](CC(=O)O)NC(=O)CCCN3CCc4c(nc(C(=O)Nc5cccc(-c6cccc(NC(=O)c7nc8c(n7C)CCN(CCCC(=O)O)C8)c6Cl)c5Cl)n4C)C3)c21` [Example 12], the EC50 in assay [2] is 50 to 200 nM; in assay [3] (setting [5]), below 50 nM.

Compound `Cc1c(-c2nc3cc(CN4CC[C@H](C(=O)O)C4)cc(C#N)c3o2)cccc1-c1cccc(NC(=O)c2nc3c(n2C)CCN(C)C3)c1Cl` [Example P11] returned an IC50 against PD-L1 [4] below 100 nM.

On to `Cc1c(NC(=O)c2ccc(CNCCO)cn2)cccc1-c1cccc(NC(=O)c2ccc(CNCCO)cn2)c1Cl` [Example P7], for which the IC50 at PD-L1 [4] is below 100 nM.

For `CCn1nc(C)cc1C(=O)Nc1nc2cc(C(N)=O)cc(OC)c2n1C/C=C/Cn1c(NC(=O)c2cc(C)nn2CC)nc2cc(C(N)=O)cc(OCCCNC(C)=O)c21` [Example S33, (E)-7-(3-acetamidopropoxy)-1-(4-(5-carbamoyl-2-(1-ethyl-3-methyl-1H-pyrazole-5-carboxamido)-7-methoxy-1H-benzo[d]imidazol-1-yl)but-2-en-1-yl)-2-(1-ethyl-3-methyl-1H-pyrazole-5-carboxamido)-1H-benzo[d]imidazole-5-carboxamide], the EC50 in the assay with IRF3 (THP-1, Table 4A) was at most 100 nM.

In the case of `CCn1nc(C)cc1C(=O)Nc1nc2cc(C(N)=O)cc(OCCCO)c2n1C/C=C/Cn1c2ccc(C(N)=O)cc2c2cc(F)c(-c3cc(C)nn3CC)nc21` [Example S37, (E)-9-(4-(5-carbamoyl-2-(1-ethyl-3-methyl-1H-pyrazole-5-carboxamido)-7-(3-hydroxypropoxy)-1H-benzo[d]imidazol-1-yl)but-2-en-1-yl)-2-(1-ethyl-3-methyl-1H-pyrazol-5-yl)-3-fluoro-9H-pyrido[2,3-b]indole-6-carboxamide], in the assay with IRF3 (THP-1, Table 4C), the concentration for a half-maximal effect (EC50) was at most 50 nM.

As for `CCn1nc(C)cc1C(=O)Nc1nc2cc(C(N)=O)cc(OC)c2n1C/C=C/Cn1c(NC(=O)c2cc(C)nn2CC)nc2cc(C(N)=O)cc(OCCCNC(=O)CCN)c21` [Example S32, (E)-7-(3-(3-aminopropanamido)propoxy)-1-(4-(5-carbamoyl-2-(1-ethyl-3-methyl-1H-pyrazole-5-carboxamido)-7-methoxy-1H-benzo[d]imidazol-1-yl)but-2-en-1-yl)-2-(1-ethyl-3-methyl-1H-pyrazole-5-carboxamido)-1H-benzo [d]imidazole-5-carboxamide], the EC50 in the assay with IRF3 (THP-1, Table 4A) was at most 100 nM.

In the case of `CCn1nc(C)cc1C(=O)Nc1nc2cc(C(N)=O)cc(OCCCOC(=O)NCCC(=O)O)c2n1C/C=C/Cn1c2nc(-c3cc(C)nn3CC)ncc2c2cc(C(N)=O)cc(OCCOCCOCCC(=O)O)c21` [Example S63, (E)-3-(((3-((5-carbamoyl-1-(4-(6-carbamoyl-8-(2-(2-(2-carboxyethoxy)ethoxy)ethoxy)-2-(1-ethyl-3-methyl-1H-pyrazol-5-yl)-9H-pyrimido[4,5-b]indol-9-yl)but-2-en-1-yl)-2-(1-ethyl-3-methyl-1H-pyrazole-5-carboxamido)-1H-benzo[d]imidazol-7-yl)oxy)propoxy)carbonyl)amino)propanoic acid], in the assay with IRF3 (THP-1, Table 4C), the EC50 was in the range of 200 to 500 nM.

Consider `CCn1nc(C)cc1C(=O)Nc1nc2cc(C(N)=O)cc(C)c2n1C/C=C/Cn1c2ccc(C(N)=O)cc2c2cnc(-c3ccnn3CC)nc21` [Example S7, (E)-9-(4-(5-carbamoyl-2-(1-ethyl-3-methyl-1H-pyrazole-5-carboxamido)-7-methyl-1H-benzo[d]imidazol-1-yl)but-2-enyl)-2-(1-ethyl-1H-pyrazol-5-yl)-9H-pyrimido[4,5-b]indole-6-carboxamide], for which the EC50 in the assay with IRF3 (THP-1, Table 4A) was 100 to 500 nM; in the assay on IRF3 (THP-1, Table 4B), below 1000 nM; in the assay with IRF3 (THP-1, Table 4C) it was 200 to 500 nM.
